Where “and” joins values, the source holds several entries; their conditions need not be identical. Equal values may be shown once.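 Five compound concentrations were applied to cells in 96-well plates for 48 hours; endpoints were derived by simple linear interpolation of the resulting dose-response curve. Here, GI50 denotes the concentration required for 50% inhibition of growth. Definition used: TGI = concentration required for complete inhibition of growth.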
What was measured:
Test in all cases: inhibition of tumour cell growth, NCI panel, 48 h
PC-3 prostate = tested on: PC-3 prostate
SNB-75 CNS = tested on: SNB-75 CNS
EKVX NSCLC = tested on: EKVX NSCLC
MCF7 breast = tested on: MCF7 breast
SF-268 CNS = tested on: SF-268 CNS
SK-OV-3 ovarian = tested on: SK-OV-3 ovarian
MDA-N = tested on: MDA-N
T-47D breast = tested on: T-47D breast
HCT-116 colon = tested on: HCT-116 colon
OVCAR-5 ovarian = tested on: OVCAR-5 ovarian

SMILES	TGI (PC-3 prostate)	TGI (SNB-75 CNS)	TGI (EKVX NSCLC)	TGI (MCF7 breast)	TGI (SF-268 CNS)	TGI (SK-OV-3 ovarian)	TGI (MDA-N)	TGI (T-47D breast)	TGI (HCT-116 colon)	TGI (OVCAR-5 ovarian)	GI50 (PC-3 prostate) [µM]	GI50 (SNB-75 CNS) [µM]	GI50 (EKVX NSCLC) [µM]	GI50 (MCF7 breast) [µM]	GI50 (SF-268 CNS) [µM]	GI50 (HCT-116 colon)	GI50 (SK-OV-3 ovarian)	GI50 (MDA-N)	GI50 (T-47D breast)	GI50 (OVCAR-5 ovarian)
CC1(C)C2CC(=O)C1(C)C(OCc1ccccc1)C2 (stereo unspecified)	> 100 µM	> 100 µM	> 100 µM	> 100 µM	> 100 µM	> 100 µM	> 100 µM	> 100 µM	66.1 µM	> 100 µM										
CN(C)CCCn1nc(N)c2nc3cc(Cl)ccc3nc21	> 100 µM	> 100 µM	> 100 µM	> 100 µM	> 100 µM	> 100 µM	> 100 µM	> 100 µM	> 100 µM	> 100 µM										
Cc1c2c(OCCN3CCCCC3)nn(C)c(=O)c2c(C)n1-c1ccccc1	> 100 µM	> 100 µM	> 100 µM	> 100 µM	> 100 µM	> 100 µM	> 100 µM	> 100 µM	> 100 µM	> 100 µM										
FC(F)(F)c1cccc(-c2nc3ccccc3c3c2[C@@]2(N4CCCC4)CCCC[C@@H]32)c1	> 100 µM	> 100 µM	> 100 µM	62.8 µM	> 100 µM	> 100 µM	> 100 µM	> 100 µM	> 100 µM	> 100 µM										
Cc1ccc(/C=N/Nc2ccc3ccccc3n2)s1	31.5 µM	> 100 µM	32.2 µM	45.1 µM	> 100 µM	> 100 µM	29.2 µM	> 100 µM	24 µM	> 100 µM										
Cc1ccc(NC(=O)CSc2nc(=O)[nH]c3nc[nH]c23)cc1	> 100 µM	> 100 µM	> 100 µM	> 100 µM	> 100 µM	> 100 µM	> 100 µM	> 100 µM	> 100 µM	> 100 µM										
CC(=O)OC[C@@H](OC(C)=O)[C@H](OC(C)=O)[C@@H]1OC(C)(C)O[C@@H]1C1SCCCS1	> 100 µM	> 100 µM	> 100 µM	> 100 µM	> 100 µM	> 100 µM	> 100 µM	> 100 µM	> 100 µM	> 100 µM										
Cc1cn([C@@H]2O[C@H](CO[Si](C)(C)C(C)(C)C)[C@]3(O[C@H]3C(=O)NN)[C@H]2O[Si](C)(C)C(C)(C)C)c(=O)[nH]c1=O	11.4 µM	22.9 µM	22.4 µM	15.1 µM	12 µM	36.2 µM	13.3 µM	6.32 µM	13.3 µM	21.3 µM										
O=[N+]([O-])c1cc2c(cc1/C=N/n1c(CO)nc3ccccc31)OCO2	> 100 µM	> 100 µM	> 100 µM	> 100 µM	> 100 µM	> 100 µM	> 100 µM	> 100 µM	> 100 µM	> 100 µM										
c1c[nH]c(C23C4C5C6C4C2C6C53)n1 (stereo unspecified)	> 100 µM	> 100 µM	> 100 µM	> 100 µM	> 100 µM	> 100 µM	> 100 µM	> 100 µM	> 100 µM	> 100 µM										
CCN(CC)CCNC(=O)c1cn2c(ccc3sc4ccccc4c(=O)c32)n1	23.4 µM	32.6 µM	35.3 µM	38.2 µM	24.8 µM	25.5 µM	28.4 µM	30 µM	20.7 µM	21.7 µM										
CCCCCCCCCCCCCCCC(=O)N(CCCCCCCCCCC(=O)O)CC(O)C(O)C(OC1OC(CO)C(O)C(O)C1O)C(O)CO (stereo unspecified)	> 100 µM	> 100 µM	> 100 µM	> 100 µM	48.9 µM	> 100 µM	> 100 µM	> 100 µM	> 100 µM	> 100 µM										
O=C(Cc1ccccc1)Nn1c(-c2ccccc2)nc2ccccc2c1=O	> 100 µM	> 100 µM	> 100 µM	> 100 µM	> 100 µM	> 100 µM	> 100 µM	> 100 µM	> 100 µM	> 100 µM										
C=C1C(=O)O[C@@H]2C[C@]3(C)CC[C@]4(C)[C@H](CC[C@@H]5[C@@]6(C)CCC(=O)C(C)(C)[C@@H]6CC[C@]54C)[C@H]3[C@H]12	35.4 µM	43.9 µM	38 µM	21.4 µM	46.1 µM	44.1 µM	30.9 µM	34 µM	31.3 µM	32.8 µM										
Oc1ccc(Cl)cc1CN1CCN(Cc2cc(Cl)ccc2O)C1	6.69 µM	7.59 µM	6.09 µM	24.1 µM	12.8 µM	13.3 µM	6.43 µM	10.9 µM	1.34 µM	16.9 µM										
Cc1cc(S(=O)(=O)Nc2nc(N)nc(N(C)C)n2)c(SCC(=O)O)cc1Cl	> 10 µM	> 10 µM	> 10 µM	> 10 µM	> 10 µM	> 10 µM	> 10 µM	> 10 µM	> 10 µM	> 10 µM										
COc1ccc2cc(CN3CCC(C4CCNCC4)CC3)ccc2c1	28 µM	5.95 µM	21.2 µM	6.32 µM	> 22.3 µM	23.4 µM	4.19 µM	5.23 µM	3.73 µM	20.4 µM										
CCOP(=O)(OCC)C(C#N)Cc1ccco1 (stereo unspecified)	> 10 µM	> 10 µM	> 10 µM	> 10 µM	> 10 µM	> 10 µM	> 10 µM	> 10 µM	> 10 µM	> 10 µM										
CC(=O)OC1COC(Nc2nc(NCc3ccccc3)n(C)c(=O)c2N=O)C(OC(C)=O)C1OC(C)=O (stereo unspecified)	> 10 µM	> 10 µM	> 10 µM	> 10 µM	> 10 µM	> 10 µM	> 10 µM	> 10 µM	> 10 µM	> 10 µM										
CCCCCCCCCCC1OC([C@@H](O)CC[C@H](O)C2CC[C@@H](CCCCCCCC(O)CC3=CC(C)OC3=O)O2)CCC1O (stereo partly specified)	> 25 µM	> 25 µM	> 25 µM	> 25 µM	> 25 µM	> 25 µM	> 25 µM	> 25 µM	> 25 µM	> 25 µM	2.92	20.7	9.5	1.34	23.6	6 µM				
O=C(N/N=C1/C(=O)c2c3ccccc3cc3cccc1c23)c1ccccc1	> 84.1 µM	74.9 µM	> 100 µM	> 77.1 µM	> 91.9 µM	75 µM	> 100 µM	42 µM	> 84.8 µM	> 100 µM										
CC1OC(OC2C(OC(=O)[C@]34CCC(C)(C)C[C@H]3C3=CC[C@@H]5[C@@]6(C)CC[C@H](OC7OC(C(=O)O)C(O)C(OC8OCC(O)C(O)C8O)C7O)C(C)(C)[C@@H]6CC[C@@]5(C)[C@]3(C)CC4)OCC(O)C2O)C(O)C(OC2OCC(O)C(O)C2O)C1OC1OCC(O)C(OC2OCC(O)C(O)C2O)C1O (stereo partly specified)	21.7 µM and 23.1 µM	29.8 µM and 39.3 µM	22.6 µM and 35.7 µM	50.7 µM and > 100 µM	25.5 µM and 54.7 µM	33.7 µM and > 100 µM	19.8 µM and 31.8 µM	51.8 µM and > 100 µM	62.5 µM and > 100 µM	20.3 µM and 32.4 µM						8.78 µM and 22.9 µM	15.4 µM and 37.2 µM	7.14 µM and 16.4 µM	9.59 µM and 38.3 µM	7.26 µM and 17.7 µM
CCCCCCCCCCCCCCCCOC[C@@H](COC(c1ccccc1)(c1ccccc1)c1ccccc1)O[P+](=S)OC (stereo partly specified)	18.9 µM	29.6 µM	31.5 µM	31 µM	28.6 µM	19.8 µM	5.53 µM	45 µM	14.1 µM	28.7 µM										
CCOC(=O)C(Cc1cccn1C(=O)OC(C)(C)C)[N+](=O)[O-] (stereo unspecified)	45.3 µM	54.9 µM	> 100 µM	> 100 µM	> 100 µM	> 100 µM	90.4 µM	> 100 µM	51.3 µM	63.2 µM										
O=c1c(=O)c2c(Br)sc(Br)c2c1=O	36.5 µM	75.2 µM	42.8 µM	42.3 µM	> 100 µM	> 100 µM	32.8 µM	47.8 µM	37.8 µM	39.8 µM										
O=C(N/N=C(/COc1ccc([N+](=O)[O-])cc1)N=Cc1ccncc1)c1ccncc1	> 100 µM	> 100 µM	> 100 µM	> 100 µM	> 100 µM	> 100 µM	> 100 µM	> 100 µM	> 100 µM	> 100 µM										
COc1ccc(OC)c(NS(=O)(=O)c2ccc3nc(C)n(NS(=O)(=O)c4cc(OC)ccc4OC)c(=O)c3c2)c1	> 100 µM	> 100 µM	> 100 µM	> 100 µM	> 100 µM	> 100 µM	> 100 µM	> 100 µM	> 100 µM	> 100 µM										
O=C(O)Cc1ccc2[nH]c(O)c(C3=Nc4ccccc4C3=O)c2c1	> 100 µM	> 100 µM	> 100 µM	36.1 µM	> 100 µM	94.8 µM	> 100 µM	> 100 µM	68.5 µM	> 100 µM										
O=C(CNc1ccccc1[N+](=O)[O-])Nn1c(-c2ccccc2)nc2ccccc2c1=O	61.5 µM	41.8 µM	36.2 µM	34.2 µM	> 100 µM	> 100 µM	57.9 µM	39.2 µM	41.4 µM	41.3 µM										

Reference: PubChem BioAssay (NCI)
